Experimental data as given in patent US9169260B2 (MERCK SHARP & DOHME CORP., priority 2011, dated 2015).

Molecular target: GST tagged IRAK-4 (Homo sapiens (Human), UniProt Q9NWZ3)
Test: IRAK-4 Kinase Assay (IMAP fluorescence polarization)
Format: biochemical
Details: 100 μM ATP, 30 minutes at 25° C.
Summary of the method: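 Activity was read by IMAP fluorescence polarization, where phosphopeptide binding to M(III) nanoparticles raises FP. The 30-minute, 25° C reaction used 100 μM ATP, 100 nM RP7030 substrate and 0.5 nM GST-IRAK-4 in pH 7.2 Tris buffer with MgCl2, DTT and Tween 20.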

GST tagged IRAK-4, sequence (Q9NWZ3 whole entry): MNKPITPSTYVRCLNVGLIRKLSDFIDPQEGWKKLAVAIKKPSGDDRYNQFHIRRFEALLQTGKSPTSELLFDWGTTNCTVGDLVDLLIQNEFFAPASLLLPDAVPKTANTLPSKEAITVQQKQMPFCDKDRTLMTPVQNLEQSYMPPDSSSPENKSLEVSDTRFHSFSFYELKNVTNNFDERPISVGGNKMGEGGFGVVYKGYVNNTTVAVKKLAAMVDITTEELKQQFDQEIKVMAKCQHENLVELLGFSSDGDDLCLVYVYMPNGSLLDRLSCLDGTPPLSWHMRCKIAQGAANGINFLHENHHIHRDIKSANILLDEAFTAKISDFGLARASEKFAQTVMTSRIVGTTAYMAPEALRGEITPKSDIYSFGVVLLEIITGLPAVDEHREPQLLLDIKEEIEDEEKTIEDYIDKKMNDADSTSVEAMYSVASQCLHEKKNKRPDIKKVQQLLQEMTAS

Structure (SMILES)	IC50 (μM) [µM]	IC50 [µM]
COc1ccc(-c2cc(NC(=O)c3cnn4cccnc34)n(-c3ccc(C)cc3)n2)cc1 [Example 131, N-(3-(4-methoxyphenyl)-1-(p-tolyl)-1H-pyrazol-5-yl)pyrazolo[1,5-a]pyrimidine-3-carboxamide]	< 1	–
Cc1ccc(-n2nc(CC3CCOCC3)cc2NC(=O)c2cnn3cccnc23)cc1 [Example 45, N-(3-((tetrahydro-2H-pyran-4-yl)methyl)-1-(p-tolyl)-1H-pyrazol-5-yl)pyrazolo[1,5-a]pyrimidine-3-carboxamide]	< 1	–
Cc1ccc(-n2nc(C3CCNCC3)cc2NC(=O)c2cnn3cccnc23)c(F)c1 [Example 56, N-(1-(2-fluoro-4-methylphenyl)-3-(piperidin-4-yl)-1H-pyrazol-5-yl)pyrazolo[1,5-a]pyrimidine-3-carboxamide]	–	< 0.1
Cc1ccc(-n2nc(C3CCN(C4CCN(C5CC5)CC4)CC3)cc2NC(=O)c2cnn3cccnc23)nc1 [Example 267, N-[3-(1′-cyclopropyl-1,4′-bipiperidin-4-yl)-1-(5-methylpyridin-2-yl)-1H-pyrazol-5-yl]pyrazolo[1,5-a]pyrimidine-3-carboxamide]	–	< 0.1
Cc1ccc(-n2nc(C3CCN(C)CC3)cc2NC(=O)c2cnn3cccnc23)cc1 [Example 36, N-(3-(1-methylpiperidin-4-yl)-1-(p-tolyl)-1H-pyrazol-5-yl)pyrazolo[1,5-a]pyrimidine-3-carboxamide]	< 1	–
O=C(Nc1cc(-c2ccncc2)nn1-c1ccc(F)cc1)c1cnn2cccnc12 [Example 126, N-(1-(4-fluorophenyl)-3-(pyridin-4-yl)-1H-pyrazol-5-yl)pyrazolo[1,5-a]pyrimidine-3-carboxamide]	< 1	–
Cc1ccc(-n2nc(C3CCCN(S(=O)(=O)C4CC4)C3)cc2NC(=O)c2cnn3cccnc23)cc1 (stereo not drawn) [Example 44, N-(3-(1-(cyclopropylsulfonyl)piperidin-3-yl)-1-(p-tolyl)-1H-pyrazol-5-yl)pyrazolo[1,5-a]pyrimidine-3-carboxamide]	< 1	–
Cc1ccc(-n2nc(C3CCN(C4CCCCC4)CC3)cc2NC(=O)c2cnn3cccnc23)cc1 [Example 204, N-[3-(1-cyclohexylpiperidin-4-yl)-1-(4-methylphenyl)-1H-pyrazol-5-yl]pyrazolo[1,5-a]pyrimidine-3-carboxamide]	–	< 0.1
Cc1ccc(-n2nc(C3CCN(C4CCC(C)C4)CC3)cc2NC(=O)c2cnn3cccnc23)nc1 (stereo not drawn) [Example 272, N-{3-[1-(3-methylcyclopentyl)piperidin-4-yl]-1-(5-methylpyridin-2-yl)-1H-pyrazol-5-yl}pyrazolo[1,5-a]pyrimidine-3-carboxamide]	–	< 0.1
O=C(Nc1cc(C2CCNCC2)nn1-c1ccc(Cl)cc1)c1cnn2cccnc12 [Example 9, N-(1-(4-chlorophenyl)-3-(piperidin-4-yl)-1H-pyrazol-5-yl)pyrazolo[1,5-a]pyrimidine-3-carboxamide]	< 1	–
CNC(=O)c1ccc(-c2cc(NC(=O)c3cnn4cccnc34)n(-c3ccc(C)cc3)n2)cc1 [Example 348, N-{3-[4-(methylcarbamoyl)phenyl]-1-(4-methylphenyl)-1H-pyrazol-5-yl}pyrazolo[1,5-a]pyrimidine-3-carboxamide]	–	< 0.1
Cc1ccc(-n2nc(C3CN(Cc4nccs4)C3)cc2NC(=O)c2cnn3cccnc23)cc1 [Example 307, N-{1-(4-methylphenyl)-3-[1-(1,3-thiazol-2-ylmethyl)azetidin-3-yl]-1H-pyrazol-5-yl}pyrazolo[1,5-a]pyrimidine-3-carboxamide]	< 1	–
Cc1ccccc1-n1nc(C2CCNCC2)cc1NC(=O)c1cnn2cccnc12 [Example 14, N-(3-(piperidin-4-yl)-1-(o-tolyl)-1H-pyrazol-5-yl)pyrazolo[1,5-a]pyrimidine-3-carboxamide]	> 1	–
Cc1ccc(-n2nc(-c3cncnc3)cc2NC(=O)c2cnn3cccnc23)cc1 [Example 137, N-(3-(pyrimidin-5-yl)-1-(p-tolyl)-1H-pyrazol-5-yl)pyrazolo[1,5-a]pyrimidine-3-carboxamide]	> 1	–
Cc1ccc(-n2nc(CN3CCCC3)cc2NC(=O)c2cnn3cccnc23)cc1 [Example 142, N-(3-(pyrrolidin-1-ylmethyl)-1-(p-tolyl)-1,4-pyrazol-5-yl)pyrazolo[1,5-a]pyrimidine-3-carboxamide]	> 1	–
Cc1ccc(-n2nc(C3CCN(Cc4cn[nH]c4)CC3)cc2NC(=O)c2cnn3cccnc23)cc1 [Example 233, N-{1-(4-methylphenyl)-3-[1-(1H-pyrazol-4-ylmethyl)piperidin-4-yl]-1H-pyrazol-5-yl}pyrazolo[1,5-a]pyrimidine-3-carboxamide]	–	< 0.1
COc1ccc(S(=O)(=O)N2CCC(c3cc(NC(=O)c4cnn5cccnc45)n(-c4ccc(C)cc4)n3)CC2)cc1OC [Example 359, N-[3-{1-[(3,4-dimethoxyphenyl)sulfonyl]piperidin-4-yl}-1-(4-methylphenyl)-1H-pyrazol-5-yl]pyrazolo[1,5-a]pyrimidine-3-carboxamide]	< 1	–
Cc1ccc(-n2nc(C3CN(Cc4cc(C)on4)C3)cc2NC(=O)c2cnn3cccnc23)cc1 [Example 311, N-[3-{1-[(5-methylisoxazol-3-yl)methyl]azetidin-3-yl]-1-(4-methylphenyl)-1H-pyrazol-5-yl}pyrazolo[1,5-a]pyrimidine-3-carboxamide]	< 1	–
Cc1ccc(-n2nc(-c3cnn(C)c3)cc2NC(=O)c2cnn3cccnc23)cc1 [Example 326, N-[1′-methyl-1-(4-methylphenyl)-1H,1′H-3,4′-bipyrazol-5-]pyrazolo[1,5-a]pyrimidine-3-carboxamide]	< 1	–
Cc1ccc(-n2nc(C3CCNCC3)cc2NC(=O)c2cnn3cccnc23)cn1 [Example 167, N-(1-(6-methylpyridin-3-yl)-3-(piperidin-4-yl)-1H-pyrazol-5-yl)pyrazolo[1,5-a]pyrimidine-3-carboxamide]	> 1	–
CNS(=O)(=O)c1ccc(-c2cc(NC(=O)c3cnn4cc(C5CC5)cnc34)n(-c3ccc(C)cn3)n2)cc1 [Example 195, 6-cyclopropyl-N-(1-(5-methylpyridin-2-yl)-3-(4-(N-methylsulfamoyl)phenyl)-1H-pyrazol-5-yl)pyrazolo[1,5-a]pyrimidine-3-carboxamide]	< 1	–
COc1ccc(-n2nc(C3CCN(S(C)(=O)=O)CC3)cc2NC(=O)c2cnn3cccnc23)c(F)c1 [Example 64, N-(1-(2-fluoro-4-methoxyphenyl)-3-(1-(methylsulfonyl)piperidin-4-yl)-1H-pyrazol-5-yl)pyrazolo[1,5-a]pyrimidine-3-carboxamide]	–	< 0.1
Cc1ccc(-n2nc(N3CCN(C4CCOCC4)CC3)cc2NC(=O)c2cnn3cccnc23)nc1 [Example 321, N-{1-(5-methylpyridin-2-yl)-3-[4-(tetrahydro-2H-pyran-4-yl)piperazin-1-yl]-1H-pyrazol-5-yl}pyrazolo[1,5-a]pyrimidine-3-carboxamide]	–	< 0.1
Cc1ccc(-n2nc(N3CCN(C4CCCCC4)CC3)cc2NC(=O)c2cnn3cccnc23)nc1 [Example 319, N-[3-(4-cyclohexylpiperazin-1-yl)-1-(5-methylpyridin-2-yl)-1H-pyrazol-5-yl]pyrazolo[1,5-a]pyrimidine-3-carboxamide]	–	< 0.1
